Values quoted from earlier work as cited in patent US20020010148A1, “Oral combinations of hydroxocobalamin and folic acid” (priority 1999, published 2002).

Legend:
homocysteine levels = conditions: 0.4 mg hydroxocobalamin alone or with 0.5 mg/day or 5 mg/day folic acid, oral
[1] = oral doses of 1 mg or more; without intrinsic factor; dose-dependent
vitamin B12 deficiency = conditions: oral 1-2 mg/day; patients with pernicious anaemia

Compound	contribution to lowering of homocysteine levels (homocysteine levels)	also measured
Nc1nc2ncc(CNc3ccc(C(=O)N[C@@H](CCC(=O)O)C(=O)O)cc3)nc2c(=O)[nH]1 [folic acid]	main effect	
C/C1=C2/[N-][C@H]([C@H](CC(N)=O)[C@@]2(C)CCC(=O)NC[C@@H](C)OP(=O)([O-])O[C@H]2[C@@H](O)[C@@H](n3cnc4cc(C)c(C)cc43)O[C@@H]2CO)[C@]2(C)N=C(/C(C)=C3N=C(/C=C4N=C1[C@@H](CCC(N)=O)C\4(C)C)[C@@H](CCC(N)=O)[C@]\3(C)CC(N)=O)[C@@H](CCC(N)=O)[C@]2(C)CC(N)=O.[Co+3].[OH-] [hydroxocobalamin]	contributed little	
Vitamin B12		passive absorption, share of the oral dose [1]: 1-2%
cyanocobalamin		adequacy of oral dosing to provide vitamin B12 (vitamin B12 deficiency): fully adequate
